# From patent US9861680B2, “Immunomodulators” (BRISTOL-MYERS SQUIBB COMPANY, priority 2014, dated 2018)
# Numbered stars: 1 amine (or outer) side, 2 acyl side, 3 side chain; on linkers, the order of the positions; unused ones are H or OH. Bridge positions count the residues as written; N and C are the ends. Square brackets hold non-standard residues; d marks the D form. Peptide text beside a SMILES is read from it. X8 = C[C@@H](C(=O)[*:2])N(CCC(F)(F)F)[*:1]; N(2-hydroxyethyl)Ala = C[C@H](NCCO)C(=O)O; X3 = CCCC[C@@H](C(=O)[*:2])N(CCO)[*:1]; X2 = C[C@@H](C(=O)[*:2])N(CCN)[*:1]; X1 = O=C(CN(CCC(F)(F)F)[*:1])[*:2]; NBnAla = C[C@H](NCc1ccccc1)C(=O)O; Hyp = O=C(O)[C@@H]1C[C@@H](O)CN1; Gly(N-CH2CH2OH) = O=C(O)CNCCO; NMeNle = CCCC[C@H](NC)C(=O)O; NMeA = CN[C@@H](C)C(=O)O; Dab = NCC[C@H](N)C(=O)O
# Biological target: T1, PD-1-Ig binding to PD-L1-TVMV-His (PD-L1-His) (Homo sapiens, UniProt Q9NZQ7)
# T1 construct: hPDL1(19-239)-TVMV-His; made in house; host or cells: HEK293T
# T1 sequence (Q9NZQ7 with tags, fused parts or gaps): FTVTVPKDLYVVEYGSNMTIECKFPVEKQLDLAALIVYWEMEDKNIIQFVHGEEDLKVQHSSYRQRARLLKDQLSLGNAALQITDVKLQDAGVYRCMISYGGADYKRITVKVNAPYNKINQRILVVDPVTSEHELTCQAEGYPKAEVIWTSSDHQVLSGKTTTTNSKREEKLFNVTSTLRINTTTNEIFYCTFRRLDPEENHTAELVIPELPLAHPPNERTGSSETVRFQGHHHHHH
# Experiment: PD-1/PD-L1 Homogenous Time-Resolved Fluorescence (HTRF) binding assay
# Settings: PD-L1-His 10 nM, PD-1-Ig 20 nM
# Text: Methods for Testing the Ability of Macrocyclic Peptides to Compete for the Binding of Pd-1 to Pd-L1 Using Homogenous Time-Resolved Fluorescence (HTRF) Binding Assays
# The ability of the macrocyclic peptides of the present disclosure to bind to PD-L1 was investigated using a PD-1/PD-L1 Homogenous Time-Resolved Fluorescence (HTRF) binding assay.
# Homogenous Time-Resolved Fluorescence (HTRF) Assays of Binding of Soluble PD-1 to Soluble PD-L1. Soluble PD-1 and soluble PD-L1 refers to proteins with carboxyl-end truncations that remove the transmembrane-spanning regions and are fused to heterologous sequences, specifically the Fc portion of the human immunoglobuling G sequence (Ig) or the hexahistidine epitope tag (His). All binding studies were performed in an HTRF assay buffer consisting of dPBS supplemented with 0.1% (w/v) bovine serum albumin and 0.05% (v/v) Tween-20. For the PD-1-Ig/PD-L1-His binding assay, inhibitors were pre-incubated with PD-L1-His (10 nM final) for 15 m in 4 μl of assay buffer, followed by addition of PD-1-Ig (20 nM final) in 1 μl of assay buffer and further incubation for 15 m. PD-L1 fusion proteins from either human, cynomologous macaques, mouse, or other species were used. HTRF detection was achieved using europium crypate-labeled anti-Ig monoclonal antibody (1 nM final) and allophycocyanin (APC) labeled anti-His monoclonal antibody (20 nM final). Antibodies were diluted in HTRF detection buffer and 5 μl was dispensed on top of binding reaction. The reaction was allowed to equilibrate for 30 minutes and signal (665 nm/620 nm ratio) was obtained using an EnVision fluorometer. Additional binding assays were established between PD-1-Ig/PD-L2-His (20 and 5 nM, respectively), CD80-His/PD-L1-Ig (100 and 10 nM, respectively) and CD80-His/CTLA4-Ig (10 and 5 nM, respectively). Binding/competition studies between biotinylated Compound No. 71 and human PD-L1-His were performed as follows. Macrocyclic peptide inhibitors were pre-incubated with PD-L1-His (10 nM final) for 60 minutes in 4 μl of assay buffer followed by addition of biotinylated Compound No. 71 (0.5 nM final) in 1 μl of assay buffer. Binding was allowed to equilibrate for 30 minutes followed by addition of europium crypated labeled Streptavidin (2.5 pM final) and APC-labeled anti-His (20 nM final) in 5 μl of HTRF buffer. The reaction was allowed to equilibrate for 30 m and signal (665 nm/620 nm ratio) was obtained using an EnVision fluorometer.
# Recombinant Proteins. Carboxyl-truncated human PD-1 (amino acids 25-167) with a C-terminal human Ig epitope tag [hPD-1 (25-167)-3S-IG] and human PD-L1 (amino acids 18-239) with a C-terminal His epitope tag [hPD-L1(19-239)-tobacco vein mottling virus protease cleavage site (TVMV)-His] were expressed in HEK293T cells and purified sequentially by recombinant Protein A affinity chromatography and size exclusion chromatography. Human PD-L2-His (Sino Biologicals), CD80-His (Sino Biologicals), CTLA4-Ig (RnD Systems) were all obtained through commercial sources.
# Ranges are as follows: A=0.10-10 μM; B=0.01-0.099 μM; C=0.005-0.0099 μM.
SMILES,IC50 (range class),IC50 (numeric value)
CCCC[C@H]1C(=O)N[C@@H](CC(C)C)C(=O)N[C@H](C(=O)NCC(N)=O)CSCC(=O)N[C@@H](Cc2ccc(O)cc2)C(=O)N(C)[C@@H](C)C(=O)N[C@@H](CC(N)=O)C(=O)N2CCC[C@H]2C(=O)N[C@@H](Cc2cnc[nH]2)C(=O)N[C@@H](CCC(=O)O)C(=O)N2C[C@H](O)C[C@H]2C(=O)N[C@@H](Cc2c[nH]c3ccccc23)C(=O)N[C@@H](CCN)C(=O)N[C@@H](Cc2c[nH]c3ccccc23)C(=O)N(Cc2ccccc2)[C@@H](C)C(=O)N1C [Example 3029] ({CH2CO}-Y[NMeA]NPHE[Hyp]W[Dab]W[NBnAla][NMeNle]LCG-NH2; thioether N-14),100 to 10000 nM,
CCCC[C@H]1C(=O)N[C@@H](CC(C)C)C(=O)N[C@H](C(=O)NCC(N)=O)CSCC(=O)N[C@@H](Cc2ccc(O)cc2)C(=O)N(C)[C@@H](C)C(=O)N[C@@H](CC(N)=O)C(=O)N2CCC[C@H]2C(=O)N[C@@H](Cc2cnc[nH]2)C(=O)N[C@@H](CCC(=O)O)C(=O)N2C[C@H](O)C[C@H]2C(=O)N[C@@H](Cc2c[nH]c3ccccc23)C(=O)N[C@@H](CCN)C(=O)N[C@@H](Cc2c[nH]c3ccccc23)C(=O)N(CCO)[C@@H](CCCC)C(=O)N1C [Example 3030] ({CH2CO}-Y[NMeA]NPHE[Hyp]W[Dab]W[X3][NMeNle]LCG-NH2; thioether N-14),10 to 99 nM,
CCCC[C@H]1C(=O)N(C)[C@@H](CCCC)C(=O)N[C@@H](CC(C)C)C(=O)N[C@H](C(=O)NCC(N)=O)CSCC(=O)N[C@@H](Cc2ccc(O)cc2)C(=O)N(CCN)[C@@H](C)C(=O)N[C@@H](CC(N)=O)C(=O)N2CCC[C@H]2C(=O)N[C@@H](Cc2cnc[nH]2)C(=O)N[C@@H](CCC(=O)O)C(=O)N2C[C@H](O)C[C@H]2C(=O)N[C@@H](Cc2c[nH]c3ccccc23)C(=O)N[C@@H](CCN)C(=O)N[C@@H](Cc2c[nH]c3ccccc23)C(=O)N1C [Example 3032] ({CH2CO}-Y[X2]NPHE[Hyp]W[Dab]W[NMeNle][NMeNle]LCG-NH2; thioether N-14),10 to 99 nM,
CCCC[C@H]1C(=O)N[C@@H](CC(C)C)C(=O)N[C@H](C(=O)NCC(N)=O)CSCC(=O)N[C@@H](Cc2ccc(O)cc2)C(=O)N(C)[C@@H](C)C(=O)N[C@@H](CC(N)=O)C(=O)N2CCC[C@H]2C(=O)N[C@@H](Cc2cnc[nH]2)C(=O)N[C@@H](CCC(=O)O)C(=O)N2C[C@H](O)C[C@H]2C(=O)N[C@@H](Cc2c[nH]c3ccccc23)C(=O)N[C@@H](CCN)C(=O)N[C@@H](Cc2c[nH]c3ccccc23)C(=O)N(CCO)[C@@H](C)C(=O)N1C [Example 3033] ({CH2CO}-Y[NMeA]NPHE[Hyp]W[Dab]W[N(2-hydroxyethyl)Ala][NMeNle]LCG-NH2; thioether N-14),100 to 10000 nM,
CCCC[C@H]1C(=O)N[C@@H](CC(C)C)C(=O)N[C@H](C(=O)NCC(N)=O)CSCC(=O)N[C@@H](Cc2ccc(O)cc2)C(=O)N(C)[C@@H](C)C(=O)N[C@@H](CC(N)=O)C(=O)N2CCC[C@H]2C(=O)N[C@@H](Cc2cnc[nH]2)C(=O)N[C@@H](CCC(=O)O)C(=O)N2C[C@H](O)C[C@H]2C(=O)N[C@@H](Cc2c[nH]c3ccccc23)C(=O)N[C@@H](CCN)C(=O)N[C@@H](Cc2c[nH]c3ccccc23)C(=O)N(CC(=O)O)CC(=O)N1C [Example 3037],100 to 10000 nM,
CCCC[C@H]1C(=O)N[C@@H](CC(C)C)C(=O)N[C@H](C(=O)NCC(N)=O)CSCC(=O)N[C@@H](Cc2ccc(O)cc2)C(=O)N(C)[C@@H](C)C(=O)N[C@@H](CC(N)=O)C(=O)N2CCC[C@H]2C(=O)N[C@@H](Cc2cnc[nH]2)C(=O)N[C@@H](CCC(=O)O)C(=O)N2C[C@H](O)C[C@H]2C(=O)N[C@@H](Cc2c[nH]c3ccccc23)C(=O)N[C@@H](CCN)C(=O)N[C@@H](Cc2c[nH]c3ccccc23)C(=O)N(CCC(F)(F)F)CC(=O)N1C [Example 3038] ({CH2CO}-Y[NMeA]NPHE[Hyp]W[Dab]W[X1][NMeNle]LCG-NH2; thioether N-14),,2360 nM
CCCC[C@H]1C(=O)N[C@@H](CC(C)C)C(=O)N[C@H](C(=O)NCC(N)=O)CSCC(=O)N[C@@H](Cc2ccc(O)cc2)C(=O)N(C)[C@@H](C)C(=O)N[C@@H](CC(N)=O)C(=O)N2CCC[C@H]2C(=O)N[C@@H](Cc2cnc[nH]2)C(=O)N[C@@H](CCC(=O)O)C(=O)N2C[C@H](O)C[C@H]2C(=O)N[C@@H](Cc2c[nH]c3ccccc23)C(=O)N[C@@H](CCN)C(=O)N[C@@H](Cc2c[nH]c3ccccc23)C(=O)N(CCC(F)(F)F)[C@@H](C)C(=O)N1C [Example 3041] ({CH2CO}-Y[NMeA]NPHE[Hyp]W[Dab]W[X8][NMeNle]LCG-NH2; thioether N-14),10 to 99 nM,
CCCC[C@H]1C(=O)N(C)[C@@H](CCCC)C(=O)N[C@@H](CC(C)C)C(=O)N[C@H](C(=O)NCC(N)=O)CSCC(=O)N[C@@H](Cc2ccc(O)cc2)C(=O)N(CC(=O)O)CC(=O)N[C@@H](CC(N)=O)C(=O)N2CCC[C@H]2C(=O)N[C@@H](Cc2cnc[nH]2)C(=O)N[C@@H](CCC(=O)O)C(=O)N2C[C@H](O)C[C@H]2C(=O)N[C@@H](Cc2c[nH]c3ccccc23)C(=O)N[C@@H](CCN)C(=O)N[C@@H](Cc2c[nH]c3ccccc23)C(=O)N1C [Example 3044],10 to 99 nM,
CCCC[C@H]1C(=O)N(C)[C@@H](CCCC)C(=O)N[C@@H](CC(C)C)C(=O)N[C@H](C(=O)NCC(N)=O)CSCC(=O)N[C@@H](Cc2ccc(O)cc2)C(=O)N(CCO)CC(=O)N[C@@H](CC(N)=O)C(=O)N2CCC[C@H]2C(=O)N[C@@H](Cc2cnc[nH]2)C(=O)N[C@@H](CCC(=O)O)C(=O)N2C[C@H](O)C[C@H]2C(=O)N[C@@H](Cc2c[nH]c3ccccc23)C(=O)N[C@@H](CCN)C(=O)N[C@@H](Cc2c[nH]c3ccccc23)C(=O)N1C [Example 3045] ({CH2CO}-Y[Gly(N-CH2CH2OH)]NPHE[Hyp]W[Dab]W[NMeNle][NMeNle]LCG-NH2; thioether N-14),10 to 99 nM,

# More lines, now with the values ahead:
IC50 (range class),IC50 (numeric value),SMILES
10 to 99 nM,,CCCC[C@H]1C(=O)N(C)[C@@H](CCCC)C(=O)N[C@@H](CC(C)C)C(=O)N[C@H](C(=O)NCC(N)=O)CSCC(=O)N[C@@H](Cc2ccc(O)cc2)C(=O)N(CCC(F)(F)F)CC(=O)N[C@@H](CC(N)=O)C(=O)N2CCC[C@H]2C(=O)N[C@@H](Cc2cnc[nH]2)C(=O)N[C@@H](CCC(=O)O)C(=O)N2C[C@H](O)C[C@H]2C(=O)N[C@@H](Cc2c[nH]c3ccccc23)C(=O)N[C@@H](CCN)C(=O)N[C@@H](Cc2c[nH]c3ccccc23)C(=O)N1C [Example 3046] ({CH2CO}-Y[X1]NPHE[Hyp]W[Dab]W[NMeNle][NMeNle]LCG-NH2; thioether N-14)
5 to 9.9 nM,,CCCC[C@H]1C(=O)N(C)[C@@H](CCCC)C(=O)N[C@@H](CC(C)C)C(=O)N[C@H](C(=O)NCC(N)=O)CSCC(=O)N[C@@H](Cc2ccc(O)cc2)C(=O)N(C)[C@@H](C)C(=O)N[C@@H](CC(N)=O)C(=O)N2CCC[C@H]2C(=O)N[C@@H](Cc2c[nH]cn2)C(=O)N[C@@H](CCC(=O)O)C(=O)N(CC(=O)O)CC(=O)N[C@@H](Cc2c[nH]c3ccccc23)C(=O)N[C@@H](CCN)C(=O)N[C@@H](Cc2csc3ccccc23)C(=O)N1C [Example 5001]
5 to 9.9 nM,,CCCC[C@H]1C(=O)N(C)[C@@H](CCCC)C(=O)N[C@@H](CC(C)C)C(=O)N[C@H](C(=O)NCC(N)=O)CSCC(=O)N[C@@H](Cc2ccc(O)cc2)C(=O)N(C)[C@@H](C)C(=O)N[C@@H](CC(N)=O)C(=O)N(CC(=O)O)CC(=O)N[C@@H](Cc2c[nH]cn2)C(=O)N[C@@H](CCC(=O)O)C(=O)N2C[C@H](O)C[C@H]2C(=O)N[C@@H](Cc2c[nH]c3ccccc23)C(=O)N[C@@H](CCN)C(=O)N[C@@H](Cc2csc3ccccc23)C(=O)N1C [Example 5002]
10 to 99 nM,,CCCC[C@H]1C(=O)N(C)[C@@H](CCCC)C(=O)N[C@@H](CC(C)C)C(=O)N[C@H](C(=O)NCC(N)=O)CSCC(=O)N[C@@H](Cc2ccc(O)cc2)C(=O)N(CC(=O)O)CC(=O)N[C@@H](CC(N)=O)C(=O)N2CCC[C@H]2C(=O)N[C@@H](Cc2cnc[nH]2)C(=O)N[C@@H](CCC(=O)O)C(=O)N2C[C@H](O)C[C@H]2C(=O)N[C@@H](Cc2c[nH]c3ccccc23)C(=O)N[C@@H](CCN)C(=O)N[C@@H](Cc2csc3ccccc23)C(=O)N1C [Example 5003]
